Test results published in patent publication US20260069693A1, “UROLITHINS AND T-CELL MEDIATED IMMUNE RESPONSE” (priority 2022, published 2026).

Experiments:
APTK-s.c. tumors = test: subcutaneous APTK tumors, UA-supplemented diet; assay type: in vivo, C57BL/6 mice
Pgam5^−/− CD8^+ T cells = test: aCD3/aCD28 stimulation of Pgam5-/- T cells in presence of UA; assay type: cell-based, mice
Source text: Next the inventors examined whether the observed upregulation of TCF1 was a result of enhanced Wnt signalling. […] To explore whether Pgam5 may be involved in UA-induced Wnt activation, the inventors examined Pgam5 localization upon UA administration. […] More importantly, Pgam5 loss blocked the UA-dependent expansion of CD44^−CD62L^+Sca1^Hi TSCM cells (FIG. 5I).
(§1) Splenic murine T cells were isolated from mice aged 6-20 weeks by negative selection with EasySep mouse T cell isolation kit (Stem cell) according to the manufacturer's instructions. To monitor T cell proliferation, purified T cells were loaded with CellTrace Violet (C34557 ThermoFisher Scientific). T cell activation was initiated using αCD3/CD28 activation beads (11456D; ThermoFisher Scientific) at a ratio of 25 μl dynabeads per 0.5×10^6 T-cells. Cells were activated with 25-50 μM Urolithin A (Tocris) or DMSO in T cell activation Medium (RPMI (ThermoFisher Scientific) 10% FBS (South America origin), 10 mM Hepes (Sigma), 1× Non-Essential Amino Acid, 1 mM Sodium Pyruvate, 50 μM B-Mercaptoethanol, 100 U/ml penicillin, 100 μg/ml streptomycin and 2 mM Glutamax (ThermoFisher Scientific) for the indicated durations. In selected experiments, cells were stimulated in the presence of inhibitors, namely TCF1i (ICG-001; SelleckChem; 10 μM) and PGC-1αi (SR-18292, Sigma-Aldrich; 10 μm,). For subsequent analysis, activating beads were magnetically removed prior antibody staining. For human T cells, peripheral blood mononuclear cells were purified with a Ficoll-Paque (GE healthcare) gradient. T cells were enriched with EasySep Human T Cell Isolation Kit (StemCell) and activated with dynabead Human T-Activator CD3/CD28 for T Cell Expansion and Activation Kit (11131D; ThermoFisher Scientific), similar to murine T cell stimulation.
For flow cytometric analysis of mitochondria and lysosomes 500 μl of Mitotracker Red (200 nM; ThermoFisher) or Lysotracker Red DND-99 (75 nM; ThermoFisher) were applied followed by surface staining. To study changes in mitochondrial membrane potential, Mitoprobe TMRM kit (ThermoFisher) was used according to the manufacturer's instructions. Cell proliferation was assessed by CellTrace Violet (Invitrogen, C34557) at a concentration of 5 μM according to manufacturer's instructions. For human samples, cells were stained as described above with Fixable Viability Dye-eF780, αCD95-BV421 (DX2; 562616), αCD62L-PE (DREG-56; 555544), αCCR7-AF700 (150503; 561143), αCD45RO-APC (UCHL; 559865), αCD45RA-FITC (HI100; 555488), αCD8-PE-CF594 (RPA-T8; 562282) and αCD4-BV786 (OKT4; 566806) from BD.

human CD3^+ T cells = test: aCD3/aCD28 stimulation of human T cells in presence of UA; assay type: cell-based
Source text: Finally, the inventors aimed to determine whether UA causes expansion of TSCM cells in human CD8^+ T cells. The inventors isolated human CD3^+ T cells from PBMCs of healthy donors and stimulated them with aCD3/aCD28 beads in vitro in the presence of UA (FIG. 6A). Indeed, UA increased the frequency of human TSCM cells based on the expression of CD45RA^+CCR7^HiCD62L^+CD95^+CD8^+ in five out of five individual donors (FIG. 6B).
as §1, with “T cells were enriched with EasySep Human T Cell Isolation Kit (StemCell) and activated with dynabead Human T-Activator CD3/CD28 for T Cell Expansion and Activation Kit (11131D; ThermoFisher Scientific), similar to murine T cell stimulation.” left out
For flow cytometric analysis of mitochondria and lysosomes 500 μl of Mitotracker Red (200 nM; ThermoFisher) or Lysotracker Red DND-99 (75 nM; ThermoFisher) were applied followed by surface staining. […] Cell proliferation was assessed by CellTrace Violet (Invitrogen, C34557) at a concentration of 5 μM according to manufacturer's instructions. […]

[1] = cited from earlier work
[2] = tested on: FoxP3+ T regulatory cells; details: cited from earlier work
[3] = UA treated Pgam5-/- CD8+ T cells, 48 h

Structure (SMILES): O=c1oc2cc(O)ccc2c2ccc(O)cc12 [UA, Urolithin A]
- tumor growth, UA diet combined with PD-1 blockade (APTK-s.c. tumors; UA-containing food + a-PD-1): sensitized APTK tumors to PD-1 blockade
- tumor growth (APTK-s.c. tumors; UA-supplemented diet from day 11 after tumor injection vs control food): significantly reduced
- lysosome formation (Pgam5^−/− CD8^+ T cells; Pgam5-/- CD8+ T cells): still enhanced
- mitochondrial content (Pgam5^−/− CD8^+ T cells; Pgam5-/- CD8+ T cells): reduced
- PGC-1a (Pgam5^−/− CD8^+ T cells; Pgam5-/- CD8+ T cells, 48 h, UA 50 μM): failed to enhance
- UA-dependent expansion of CD44-CD62L+Sca1Hi TSCM cells (Pgam5^−/− CD8^+ T cells; Pgam5 loss, 48 h): blocked
- TCF1 (Pgam5^−/− CD8^+ T cells; [3]): failed to upregulate
- memory marker CD95 (Pgam5^−/− CD8^+ T cells; [3]): failed to upregulate
- frequency of human TSCM cells (CD45RA+CCR7HiCD62L+CD95+CD8+) (human CD3^+ T cells; 48 h, UA 50 μM, five out of five individual donors): increased
- TCF1 expression in human CD8+ T cells (human CD3^+ T cells; 48 h, intracellular staining): increased
- mitochondrial membrane potential of human CD8+ T cells (human CD3^+ T cells; after 48 hours): decreased
- muscle function ([1]; Rodents fed with a UA-high diet): superior muscle function
- muscle function in mice with Duchenne muscular dystrophy ([1]; UA-high diet): recovery of muscle function
- FoxP3+ T regulatory cells [2]: expanding
